Molecular target: Human TRPV3 (Homo sapiens (Human), UniProt Q8NET8)
Assay: Screening for TRPV3 antagonist using the 45Calcium uptake assay
Format: cell-based
Details: 2-APB (500 μM) induced 45Ca uptake, human TRPV3 expressing CHO cells
Source text: The illustrative examples of the present invention are screened for TRPV3 activity according to a modified procedure described in Tóth, A., Kedei, N., Wang, Y. and Blumberg, P. M. Life Sciences (2003), 73, 487-498. The screening of the compounds can be carried out by other methods and procedures known to a person skilled in the art. Such screening methods may be found in (a) Hu, H.-Z. et al. J. Biol. Chem. (2004), 279, 35741-35747; (b) Smith, G. D. et al. Nature (2002), 418, 186-190; (c) Peier, A. M. et al. Science (2002), 296, 2046-2049.
Screening for TRPV3 Antagonist Using the ^45Calcium Uptake Assay:
The inhibition of TRPV3 receptor activation was followed as inhibition of 2-aminoethoxydiphenylborate (2-APB) induced cellular uptake of radioactive calcium. Test compounds were dissolved in dimethyl sulfoxide (DMSO) to prepare 20 mM stock solution and then diluted using plain medium with DMEM/F-12 containing 1.8 mM CaCl2 to get desired concentration. Final concentration of DMSO in the reaction was 0.5% (v/v). Human TRPV3 expressing CHO cells were grown in DMEM/F-12 medium with 10% FBS, 1% penicillin-streptomycin solution, 400 μg/ml of G-418. […] Radioactivity in the lysate was measured in Packardt Top count after addition of liquid scintillant. […] IC50 value was calculated from concentration response curve by nonlinear regression analysis using GraphPad PRISM software.

Sequence of Human TRPV3 (Q8NET8 whole entry): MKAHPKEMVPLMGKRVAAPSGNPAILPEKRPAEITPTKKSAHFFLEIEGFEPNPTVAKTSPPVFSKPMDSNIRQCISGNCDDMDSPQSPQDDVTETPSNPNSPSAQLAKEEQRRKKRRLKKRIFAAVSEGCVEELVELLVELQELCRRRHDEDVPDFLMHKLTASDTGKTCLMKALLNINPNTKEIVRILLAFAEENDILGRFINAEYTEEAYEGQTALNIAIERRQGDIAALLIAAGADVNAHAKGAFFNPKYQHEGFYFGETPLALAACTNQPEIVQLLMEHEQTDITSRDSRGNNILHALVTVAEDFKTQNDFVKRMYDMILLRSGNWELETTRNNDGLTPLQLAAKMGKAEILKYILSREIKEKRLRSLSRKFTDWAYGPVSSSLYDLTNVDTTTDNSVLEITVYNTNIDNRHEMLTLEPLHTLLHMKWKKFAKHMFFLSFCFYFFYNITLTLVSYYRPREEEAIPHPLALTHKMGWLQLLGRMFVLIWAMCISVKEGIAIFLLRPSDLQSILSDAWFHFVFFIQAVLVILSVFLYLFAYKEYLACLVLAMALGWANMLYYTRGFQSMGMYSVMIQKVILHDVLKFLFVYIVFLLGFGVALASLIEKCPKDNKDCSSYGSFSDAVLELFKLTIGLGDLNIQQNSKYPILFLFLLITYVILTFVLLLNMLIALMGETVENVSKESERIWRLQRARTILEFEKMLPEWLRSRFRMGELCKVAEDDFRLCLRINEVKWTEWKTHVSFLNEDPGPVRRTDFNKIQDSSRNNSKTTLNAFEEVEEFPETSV

- IC50: 725.3 n.M
SMILES: COc1cccc(CNC(=O)CC2CC3(CCC3)Oc3ccc(Cl)cc32)c1OC1CCCC1 (stereo not shown) [Example 2, 2-(6-Chloro-3,4-dihydrospiro[chromene-2,1′-cyclobutan]-4-yl)-N-(2-cyclopentyloxy-3-methoxybenzyl)acetamide]

— patent publication US8492568B2, “Chromane derivatives as TRPV3 modulators” (Glenmark Pharamceuticals S.A., priority 2008, dated 2013)
